# According to patent publication US10793892B2, “Method for detecting the presence of expanded spectrum β-lactamase-producing bacteria in a sample” (INSERM (INSTITUT NATIONAL DE LA SANTE ET DE LA RECHERCHE …, priority 2011, dated 2020):
# Columns and labels:
# E. sakazakii = assay: Susceptibility testing, MIC by Etest; format: cell-based; conditions: overexpressed chromosome-encoded cephalosporinase, n=1
# Description: (§1) Susceptibility testing was performed by determining MIC values using the Etest® (AB bioMérieux; Solna, Sweden) on Mueller-Hinton agar plates at 37° C. and results were recorded according to US guidelines (CLSI), as updated in 2012 (2). The breakpoints for cefotaxime are susceptible (S)≤1 and resistant (R)≥4 μg/ml, and for ceftazidime S≤4 and R≥16 μg/ml.
# S. ficaria = assay: Susceptibility testing, MIC by Etest; format: cell-based; conditions: S. ficaria Wild-type, chromosome-encoded cephalosporinase, n=1
# Description: as §1
# P. stuartii = assay: ESBL NDP test using cultured strains; format: biochemical, Providencia stuartii; set-up: key: (+) and (−) referred to color change being, red to yellow or unchanged, respectively; (+) and (−) referred to color change being, red to yellow or unchanged, respectively; conditions: P. stuartii TEM-24, n=1
# Description: (§2) Strains were isolated on Mueller-Hinton agar (Biorad, Marnes-la-Coquette, France) and incubated at 37° C. for 16 h to 24 h before performing the NDP rapid ESBL test as follows. One calibrated inoculated loop (10 μl) of the tested strain was resuspended in 150 μl of 20 mM Tris-HCl lysis buffer previously distributed in Microbead tubes (Ultraclean Microbial DNA isolation kit Bead Tubes, MO BIO Laboratories, Carlsbad, USA). Mechanical lysis of bacteria was performed by strong agitation of Microbead tubes using a vortex adapter (MO BIO Laboratories) for 30 min at room temperature. This bacterial suspension was centrifuged at 10,000×g at room temperature for 5 min. Thirty μl of the supernatant was mixed in a well of a 96-well tray with 100 μl of a 1 ml solution made of 3 mg of purified cefotaxime sodium salt (Sigma-Aldrich, Saint-Quentin-Fallavier, France) in a pH 7.8 phenol red solution. […]. The phenol red solution was made by taking 2 ml of a concentrated pH 8 phenol solution (made from a mixture of phenol red 0.5% in distilled water) to which 16.6 ml of distilled water was added. The pH value was then adjusted to a 7.8 value by adding drops of a 1 N NaOH solution. Mixture of the phenol red solution and the enzymatic suspension being tested was incubated at 37° C. for 30 min. Similarly, culture extracts were analyzed in wells containing cefotaxime and tazobactam (4 mg/ml). […]
# CTX-M producers = assay: Susceptibility testing, MIC by Etest; format: cell-based, Enterobacteriaceae; conditions: all CTX-M producers (n=147)
# Description: as §1
# E. cloacae = assay: ESBL NDP test using cultured strains; format: biochemical, Enterobacter cloacae; set-up: key: (+) and (−) referred to color change being, red to yellow or unchanged, respectively; (+) and (−) referred to color change being, red to yellow or unchanged, respectively
# Description: (§3) Strains were isolated on Mueller-Hinton agar (Biorad, Marnes-la-Coquette, France) and incubated at 37° C. for 16 h to 24 h before performing the NDP rapid ESBL test as follows. One calibrated inoculated loop (10 μl) of the tested strain was resuspended in 150 μl of 20 mM Tris-HCl lysis buffer previously distributed in Microbead tubes (Ultraclean Microbial DNA isolation kit Bead Tubes, MO BIO Laboratories, Carlsbad, USA). Mechanical lysis of bacteria was performed by strong agitation of Microbead tubes using a vortex adapter (MO BIO Laboratories) for 30 min at room temperature. This bacterial suspension was centrifuged at 10,000×g at room temperature for 5 min. Thirty μl of the supernatant was mixed in a well of a 96-well tray with 100 μl of a 1 ml solution made of 3 mg of purified cefotaxime sodium salt (Sigma-Aldrich, Saint-Quentin-Fallavier, France) in a pH 7.8 phenol red solution. […]. The phenol red solution was made by taking 2 ml of a concentrated pH 8 phenol solution (made from a mixture of phenol red 0.5% in distilled water) to which 16.6 ml of distilled water was added. The pH value was then adjusted to a 7.8 value by adding drops of a 1 N NaOH solution. Mixture of the phenol red solution and the enzymatic suspension being tested was incubated at 37° C. for 30 min. Similarly, culture extracts were analyzed in wells containing cefotaxime and tazobactam (4 mg/ml). Other concentrations of tazobactam and other ß-lactamase inhibitors were tested giving less clear results (data not shown). […] This definition of test positivity will be applied throughout the study.
# E. aerogenes = assay: Susceptibility testing, MIC by Etest; format: cell-based, Enterobacter aerogenes
# Description: as §1
# K. pneumoniae [1] = assay: ESBL NDP test using spiked blood cultures; format: biochemical, Klebsiella pneumoniae; set-up: key: (+) and (−) referred to color change being, red to yellow or unchanged, respectively; (+) and (−) referred to color change being, red to yellow or unchanged, respectively
# Description: as §3
# Rapid detection of ESBL producers was attempted from spiked blood cultures which positivity was assessed using the BactAlert blood culture system (bioMérieux). […] This inoculum was reached after 24-48 h incubation in this BactAlert system. Strains were inoculated into blood culture system in presence of 10 ml of sterile blood. The panel of strains used for spiking blood cultures included either non-ESBL producers (n=24) or ESBL producers (n=64) (Table 4). Spiked blood cultures were made of 1×10^3 CFU of each strain and incubated 24 to 48 h before a positivity of the blood culture was detected by the BactAlert system. Then, 15 ml of spiked blood culture were transferred in a sterile tube and centrifuged at 1,500×g for 3 min to pellet the red blood cells. The supernatant was recovered and centrifuged for 15 min at 4,000×g to pellet the bacteria. The bacterial pellet was then resuspended in 500 μl of distilled water, transferred in 1.5 ml tube and thoroughly vortexed for 15 sec to lyse the remnant red blood cells and wash the bacterial pellet. After 5 min of centrifugation at 10,000×g, the bacterial pellet was resuspended in 150 μl of 20 mM Tris-HCl lysis buffer and distributed in beadtubes. The ESBL NDP test was then applied to this pellet as described above. Experiments were systematically performed in triplicate.
# K. pneumoniae [2] = assay: Susceptibility testing, MIC by Etest; format: cell-based, Klebsiella pneumoniae
# Description: as §1
# S. marcescens = assay: ESBL NDP test using spiked blood cultures; format: biochemical, Serratia marcescens; set-up: key: (+) and (−) referred to color change being, red to yellow or unchanged, respectively; (+) and (−) referred to color change being, red to yellow or unchanged, respectively
# Description: as §2, with “The phenol red solution was made by taking 2 ml of a concentrated pH 8 phenol solution (made from a mixture of phenol red 0.5% in distilled water) to which 16.6 ml of distilled water was added. The pH value was then adjusted to a 7.8 value by adding drops of a 1 N NaOH solution. Mixture of the phenol red solution and the enzymatic suspension being tested was incubated at 37° C. for 30 min.” left out
# Rapid detection of ESBL producers was attempted from spiked blood cultures which positivity was assessed using the BactAlert blood culture system (bioMérieux). […] Spiked blood cultures were made of 1×10^3 CFU of each strain and incubated 24 to 48 h before a positivity of the blood culture was detected by the BactAlert system. […]
smiles,measurement,setting,value
"CO/N=C(\C(=O)N[C@@H]1C(=O)N2C(C(=O)O)=C(COC(C)=O)CS[C@H]12)c1csc(N)n1 [CTX, cefotaxime]",MICs range,E. sakazakii,>16 µg/mL
same,MICs range,S. ficaria,0.12 µg/mL
same,Test (color change),P. stuartii,−
same,MIC,CTX-M producers,> 8 µg/mL
same,ESBL NDP Test from: Colonies,"E. cloacae; E. cloacae 09.57, SHV-12",+
same,ESBL NDP Test from: Colonies,"E. cloacae; E. cloacae 10.75, CTX-M-15",+
same,ESBL NDP Test from: Colonies,"E. cloacae; E. cloacae 10.87, CTX-M-15",+
same,ESBL NDP Test from: Colonies,"E. cloacae; E. cloacae BG 1106 7725, Wild-type",−
same,ESBL NDP Test from: Colonies,"E. cloacae; E. cloacae BG 1106 7746, Wild-type",−
same,ESBL NDP Test from: Colonies,"E. cloacae; E. cloacae BG 1107 4118, Wild-type",−
same,Test (color change),"E. cloacae; E. cloacae CTX-M-14, n=1",+
same,Test (color change),"E. cloacae; E. cloacae CTX-M-15, n=17",+
same,Test (color change),"E. cloacae; E. cloacae GES-5, n=1",+
same,Test (color change),"E. cloacae; E. cloacae PER-1, n=1",+
same,Test (color change),"E. cloacae; E. cloacae SHV-5, n=1",+
same,Test (color change),"E. cloacae; E. cloacae SHV-12, n=6",+
same,Test (color change),"E. cloacae; E. cloacae TEM-3, n=2",+
same,Test (color change),"E. cloacae; E. cloacae VEB-1, n=1",+
same,Test (color change),"E. cloacae; E. cloacae Wild-type, chromosome-encoded cephalosporinase, n=5",−
same,Test (color change),"E. cloacae; E. cloacae, overexpressed chromosome-encoded cephalosporinase, n=2",−
same,Test (color change),"E. cloacae; E. cloacae, overexpressed chromosome-encoded cephalosporinase, n=3",+
same,MICs range,"E. aerogenes; E. aerogenes TEM-24, n=6",0.5 to 8 µg/mL
same,MICs range,"E. aerogenes; E. aerogenes TEM-121, n=1",<0.06 µg/mL
same,MICs range,"E. aerogenes; E. aerogenes Wild-type, chromosome-encoded cephalosporinase, n=1",0.094 µg/mL
same,ESBL NDP Test from: Blood culture,"K. pneumoniae [1]; K. pneumoniae 09.127, SHV-2a",+
same,ESBL NDP Test from: Blood culture,"K. pneumoniae [1]; K. pneumoniae 09.138, TEM-3",+
same,ESBL NDP Test from: Blood culture,"K. pneumoniae [1]; K. pneumoniae 09.158, SHV-12",+
same,ESBL NDP Test from: Blood culture,"K. pneumoniae [1]; K. pneumoniae 09.162, TEM-52",+
same,ESBL NDP Test from: Blood culture,"K. pneumoniae [1]; K. pneumoniae 09.169, TEM-52",+
same,ESBL NDP Test from: Blood culture,"K. pneumoniae [1]; K. pneumoniae 09.181, SHV-2a",+
same,ESBL NDP Test from: Blood culture,"K. pneumoniae [1]; K. pneumoniae 09.190, SHV-2a",+
same,ESBL NDP Test from: Blood culture,"K. pneumoniae [1]; K. pneumoniae 09.200, TEM-3",+
same,ESBL NDP Test from: Blood culture,"K. pneumoniae [1]; K. pneumoniae 09.217, SHV-5",+
same,ESBL NDP Test from: Blood culture,"K. pneumoniae [1]; K. pneumoniae 09.45, SHV-12",+
same,ESBL NDP Test from: Blood culture,"K. pneumoniae [1]; K. pneumoniae 09.60, SHV-5",+
same,ESBL NDP Test from: Blood culture,"K. pneumoniae [1]; K. pneumoniae 09.99, SHV-2a",+
same,ESBL NDP Test from: Blood culture,"K. pneumoniae [1]; K. pneumoniae 10.159, CTX-M-3",+
same,ESBL NDP Test from: Blood culture,"K. pneumoniae [1]; K. pneumoniae ANG, DHA-1",−
same,ESBL NDP Test from: Blood culture,"K. pneumoniae [1]; K. pneumoniae BG 1202 5484, Penicillinase",−
same,ESBL NDP Test from: Blood culture,"K. pneumoniae [1]; K. pneumoniae FOR, DHA-2",+
same,ESBL NDP Test from: Blood culture,"K. pneumoniae [1]; K. pneumoniae MEK, CTX-M-15",+
same,ESBL NDP Test from: Blood culture,"K. pneumoniae [1]; K. pneumoniae SHI, CTX-M-15",+
same,MICs range,"K. pneumoniae [2]; K. pneumoniae CTX-M-3, n=1",>16 µg/mL
same,MICs range,"K. pneumoniae [2]; K. pneumoniae CTX-M-14, n=3",>16 µg/mL
same,MICs range,"K. pneumoniae [2]; K. pneumoniae CTX-M-15, n=28",>16 µg/mL
same,MICs range,"K. pneumoniae [2]; K. pneumoniae DHA-1, n=1",>16 µg/mL
same,MICs range,"K. pneumoniae [2]; K. pneumoniae DHA-2, n=1",>16 µg/mL
same,MICs range,"K. pneumoniae [2]; K. pneumoniae GES-1, n=1",0.5 µg/mL
same,MICs range,"K. pneumoniae [2]; K. pneumoniae SHV-2a, n=2",1 µg/mL
same,MICs range,"K. pneumoniae [2]; K. pneumoniae SHV-5, n=2",>16 µg/mL
same,MICs range,"K. pneumoniae [2]; K. pneumoniae SHV-12, n=1",1 µg/mL
same,MICs range,"K. pneumoniae [2]; K. pneumoniae SHV-12, n=2",2 to 8 µg/mL
same,MICs range,"K. pneumoniae [2]; K. pneumoniae SHV-28, n=3",>16 µg/mL
same,MICs range,"K. pneumoniae [2]; K. pneumoniae TEM-52, n=2",>16 µg/mL
same,MICs range,"K. pneumoniae [2]; K. pneumoniae Wild-type penicillinase, n=2",0.02 to 0.03 µg/mL
same,ESBL NDP Test from: Blood culture,"S. marcescens; S. marcescens BG 1107 4243, Wild-type",−
same,ESBL NDP Test from: Blood culture,"S. marcescens; S. marcescens BN 1201 0816, Wild-type",−
